Laboratory results from paper PMC10838953.

Experiments:
[1] = molecular target: RIPK5 (Homo sapiens, UniProt Q6XUX3); assay: biochemical; conditions: read-out: %Ctrl @ 2000nM
[2] = molecular target: ERK3 (Homo sapiens, UniProt Q16659); assay: biochemical; conditions: read-out: %Ctrl @ 2000nM
[3] = test system: AKT (S129); conditions: HEK293 cells; 48 h
[4] = molecular target: MST2 (Homo sapiens, UniProt Q13188); assay: biochemical; conditions: read-out: %Ctrl @ 2000nM
[5] = molecular target: MYLK2 (Homo sapiens, UniProt Q9H1R3); assay: biochemical; conditions: read-out: %Ctrl @ 2000nM
[6] = molecular target: DLK (Homo sapiens, UniProt Q12852); assay: biochemical; conditions: read-out: %Ctrl @ 2000nM
[7] = molecular target: MKK7 (Homo sapiens, UniProt O14733); assay: biochemical; conditions: read-out: %Ctrl @ 2000nM
[8] = test system: FLT3(ITD,D835V)
[9] = molecular target: ERK2 (Homo sapiens, UniProt P28482); assay: biochemical; conditions: read-out: %Ctrl @ 2000nM
[10] = molecular target: EGFR(G719S) (Homo sapiens, UniProt P00533, G719S); assay: biochemical; conditions: read-out: %Ctrl @ 2000nM
[11] = test system: HEK293 cells; conditions: high concentrations
[12] = molecular target: FLT3-autoinhibited (Homo sapiens, UniProt P36888); assay: biochemical; conditions: read-out: %Ctrl @ 2000nM
[13] = molecular target: ALK(L1196M) (Homo sapiens, UniProt Q9UM73, L1196M); assay: biochemical; conditions: read-out: %Ctrl @ 2000nM
[14] = molecular target: MEK2 (Homo sapiens, UniProt P36507); assay: biochemical; conditions: read-out: %Ctrl @ 2000nM
[15] = molecular target: SRMS (Homo sapiens, UniProt Q9H3Y6); assay: biochemical; conditions: read-out: %Ctrl @ 2000nM
[16] = molecular target: RIPK2 (Homo sapiens, UniProt O43353); assay: biochemical; conditions: read-out: %Ctrl @ 2000nM
[17] = molecular target: IRAK3 (Homo sapiens, UniProt Q9Y616); assay: biochemical; conditions: read-out: %Ctrl @ 2000nM
[18] = molecular target: ITK (Homo sapiens, UniProt Q08881); assay: biochemical; conditions: read-out: %Ctrl @ 2000nM
[19] = molecular target: GRK2 (Homo sapiens, UniProt P25098); assay: biochemical; conditions: read-out: %Ctrl @ 2000nM
[20] = molecular target: PDGFRB (Homo sapiens, UniProt P09619); assay: biochemical; conditions: read-out: %Ctrl @ 2000nM
[21] = molecular target: KIT(A829P) (Homo sapiens, UniProt P10721, A829P); assay: biochemical; conditions: read-out: %Ctrl @ 2000nM
[22] = molecular target: RSK3(Kin.Dom.2-C-terminal) (Homo sapiens, UniProt Q15349); assay: biochemical; conditions: read-out: %Ctrl @ 2000nM
[23] = molecular target: ACVR1B (Homo sapiens, UniProt P36896); assay: biochemical; conditions: read-out: %Ctrl @ 2000nM
[24] = molecular target: NEK1 (Homo sapiens, UniProt Q96PY6); assay: biochemical; conditions: read-out: %Ctrl @ 2000nM
[25] = molecular target: CAMK2B (Homo sapiens, UniProt Q13554); assay: biochemical; conditions: read-out: %Ctrl @ 2000nM
[26] = molecular target: KIT(V559D,T670I) (Homo sapiens, UniProt P10721, T670I/V559D); assay: biochemical; conditions: read-out: %Ctrl @ 2000nM
[27] = molecular target: FLT3(D835Y) (Homo sapiens, UniProt P36888, D835Y); assay: biochemical; conditions: read-out: %Ctrl @ 2000nM
[28] = molecular target: LRRK2(G2019S) (Homo sapiens, UniProt Q5S007, G2019S); assay: biochemical; conditions: read-out: %Ctrl @ 2000nM

EGFR(G719S), sequence (P00533 25-1210 G719S): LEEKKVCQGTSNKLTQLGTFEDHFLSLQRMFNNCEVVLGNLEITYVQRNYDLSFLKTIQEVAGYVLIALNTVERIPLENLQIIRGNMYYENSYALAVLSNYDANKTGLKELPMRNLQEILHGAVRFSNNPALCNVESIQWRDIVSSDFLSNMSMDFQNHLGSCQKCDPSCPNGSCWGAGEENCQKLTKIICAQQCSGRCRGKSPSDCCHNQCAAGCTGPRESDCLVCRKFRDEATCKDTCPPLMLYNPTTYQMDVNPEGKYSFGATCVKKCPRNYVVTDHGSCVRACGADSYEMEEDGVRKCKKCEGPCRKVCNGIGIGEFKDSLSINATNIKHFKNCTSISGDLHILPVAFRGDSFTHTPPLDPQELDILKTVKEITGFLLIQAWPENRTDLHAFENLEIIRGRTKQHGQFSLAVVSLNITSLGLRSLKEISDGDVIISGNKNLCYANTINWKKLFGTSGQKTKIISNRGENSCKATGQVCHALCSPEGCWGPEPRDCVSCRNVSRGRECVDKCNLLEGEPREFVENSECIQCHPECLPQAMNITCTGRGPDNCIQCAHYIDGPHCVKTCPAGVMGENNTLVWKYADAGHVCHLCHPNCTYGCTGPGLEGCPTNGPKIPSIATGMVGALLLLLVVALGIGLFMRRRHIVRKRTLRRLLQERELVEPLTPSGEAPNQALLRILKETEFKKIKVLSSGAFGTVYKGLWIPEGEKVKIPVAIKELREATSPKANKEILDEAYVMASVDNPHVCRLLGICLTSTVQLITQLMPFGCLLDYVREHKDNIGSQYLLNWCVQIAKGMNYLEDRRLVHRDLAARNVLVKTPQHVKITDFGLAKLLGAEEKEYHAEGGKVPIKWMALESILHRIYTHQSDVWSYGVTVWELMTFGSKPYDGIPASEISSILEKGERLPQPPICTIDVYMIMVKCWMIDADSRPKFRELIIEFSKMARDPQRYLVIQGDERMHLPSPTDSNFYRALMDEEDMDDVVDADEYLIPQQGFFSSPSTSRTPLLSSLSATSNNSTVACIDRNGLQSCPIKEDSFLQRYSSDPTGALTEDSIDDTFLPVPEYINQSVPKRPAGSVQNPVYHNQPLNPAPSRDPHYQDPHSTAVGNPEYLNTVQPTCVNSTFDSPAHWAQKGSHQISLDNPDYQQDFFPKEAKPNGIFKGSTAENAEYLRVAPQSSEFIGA
NEK1, sequence (Q96PY6 whole entry): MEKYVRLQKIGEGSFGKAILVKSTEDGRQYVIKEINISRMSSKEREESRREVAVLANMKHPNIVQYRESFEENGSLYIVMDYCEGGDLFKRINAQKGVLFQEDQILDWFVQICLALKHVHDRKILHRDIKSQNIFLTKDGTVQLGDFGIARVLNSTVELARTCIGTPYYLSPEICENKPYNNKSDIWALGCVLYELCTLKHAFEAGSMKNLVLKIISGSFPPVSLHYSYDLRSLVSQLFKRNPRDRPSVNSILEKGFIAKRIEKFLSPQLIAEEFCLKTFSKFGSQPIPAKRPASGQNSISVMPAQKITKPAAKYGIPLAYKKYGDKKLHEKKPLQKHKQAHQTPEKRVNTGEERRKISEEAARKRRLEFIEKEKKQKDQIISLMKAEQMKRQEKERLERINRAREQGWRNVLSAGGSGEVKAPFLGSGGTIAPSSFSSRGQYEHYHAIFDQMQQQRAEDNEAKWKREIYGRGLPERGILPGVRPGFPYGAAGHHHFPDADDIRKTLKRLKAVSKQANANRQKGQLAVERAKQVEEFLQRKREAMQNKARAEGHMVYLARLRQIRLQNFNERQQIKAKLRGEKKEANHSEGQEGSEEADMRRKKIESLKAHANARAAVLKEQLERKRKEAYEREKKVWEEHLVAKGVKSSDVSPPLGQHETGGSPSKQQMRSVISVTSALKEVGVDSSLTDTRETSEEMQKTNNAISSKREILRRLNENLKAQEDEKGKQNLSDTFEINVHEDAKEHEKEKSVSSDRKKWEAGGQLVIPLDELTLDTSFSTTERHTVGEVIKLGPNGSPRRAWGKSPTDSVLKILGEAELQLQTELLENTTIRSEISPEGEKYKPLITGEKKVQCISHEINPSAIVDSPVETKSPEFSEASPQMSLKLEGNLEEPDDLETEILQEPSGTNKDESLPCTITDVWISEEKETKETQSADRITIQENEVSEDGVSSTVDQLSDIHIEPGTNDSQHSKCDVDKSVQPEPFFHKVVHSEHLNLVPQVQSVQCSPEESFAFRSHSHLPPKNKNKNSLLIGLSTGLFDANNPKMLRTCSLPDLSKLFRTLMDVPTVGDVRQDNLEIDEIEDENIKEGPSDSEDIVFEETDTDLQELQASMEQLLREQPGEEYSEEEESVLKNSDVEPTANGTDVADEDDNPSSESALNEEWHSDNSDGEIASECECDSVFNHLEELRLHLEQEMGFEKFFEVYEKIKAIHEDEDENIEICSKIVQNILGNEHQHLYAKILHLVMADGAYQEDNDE
MEK2, sequence (P36507 whole entry): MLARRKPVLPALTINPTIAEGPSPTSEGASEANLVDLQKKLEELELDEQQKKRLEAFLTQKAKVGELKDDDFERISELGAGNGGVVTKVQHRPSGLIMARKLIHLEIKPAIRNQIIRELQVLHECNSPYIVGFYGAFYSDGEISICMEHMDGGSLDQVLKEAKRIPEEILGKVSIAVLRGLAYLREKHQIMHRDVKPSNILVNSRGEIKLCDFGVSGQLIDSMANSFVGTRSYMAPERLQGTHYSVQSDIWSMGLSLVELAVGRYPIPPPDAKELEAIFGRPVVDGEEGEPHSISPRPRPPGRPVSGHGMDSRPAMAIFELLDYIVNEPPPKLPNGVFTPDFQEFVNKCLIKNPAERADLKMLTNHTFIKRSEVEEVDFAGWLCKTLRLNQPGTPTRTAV
MYLK2, sequence (Q9H1R3 whole entry): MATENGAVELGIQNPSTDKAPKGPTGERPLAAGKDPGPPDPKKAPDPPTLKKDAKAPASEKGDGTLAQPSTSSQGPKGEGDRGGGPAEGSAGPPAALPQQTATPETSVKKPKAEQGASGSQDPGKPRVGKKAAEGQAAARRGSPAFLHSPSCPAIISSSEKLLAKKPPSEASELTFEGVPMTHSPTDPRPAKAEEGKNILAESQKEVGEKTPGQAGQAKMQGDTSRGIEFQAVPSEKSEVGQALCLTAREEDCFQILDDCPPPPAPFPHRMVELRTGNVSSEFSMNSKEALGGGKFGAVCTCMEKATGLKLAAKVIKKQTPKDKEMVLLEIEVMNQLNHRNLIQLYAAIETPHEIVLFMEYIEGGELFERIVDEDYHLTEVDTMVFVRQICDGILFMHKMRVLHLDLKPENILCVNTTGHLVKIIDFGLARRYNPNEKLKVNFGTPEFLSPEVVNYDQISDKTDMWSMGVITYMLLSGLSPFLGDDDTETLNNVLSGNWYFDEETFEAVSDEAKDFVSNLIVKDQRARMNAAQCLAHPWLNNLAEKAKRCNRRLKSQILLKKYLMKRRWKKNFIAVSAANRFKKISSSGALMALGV
MST2, sequence (Q13188 whole entry): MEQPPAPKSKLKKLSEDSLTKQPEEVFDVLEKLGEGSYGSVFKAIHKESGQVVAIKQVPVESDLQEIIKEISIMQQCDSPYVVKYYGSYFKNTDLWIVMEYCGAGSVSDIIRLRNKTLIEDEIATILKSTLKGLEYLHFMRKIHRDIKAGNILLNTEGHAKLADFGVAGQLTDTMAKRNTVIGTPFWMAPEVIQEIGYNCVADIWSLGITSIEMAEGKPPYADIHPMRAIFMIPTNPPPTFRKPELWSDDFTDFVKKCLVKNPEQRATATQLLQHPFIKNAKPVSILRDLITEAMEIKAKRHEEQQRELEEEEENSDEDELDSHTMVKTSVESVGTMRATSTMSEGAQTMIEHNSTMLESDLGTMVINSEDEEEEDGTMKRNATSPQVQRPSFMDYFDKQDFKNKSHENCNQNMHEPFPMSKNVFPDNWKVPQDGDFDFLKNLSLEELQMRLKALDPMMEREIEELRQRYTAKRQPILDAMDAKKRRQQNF
RIPK2, sequence (O43353 whole entry): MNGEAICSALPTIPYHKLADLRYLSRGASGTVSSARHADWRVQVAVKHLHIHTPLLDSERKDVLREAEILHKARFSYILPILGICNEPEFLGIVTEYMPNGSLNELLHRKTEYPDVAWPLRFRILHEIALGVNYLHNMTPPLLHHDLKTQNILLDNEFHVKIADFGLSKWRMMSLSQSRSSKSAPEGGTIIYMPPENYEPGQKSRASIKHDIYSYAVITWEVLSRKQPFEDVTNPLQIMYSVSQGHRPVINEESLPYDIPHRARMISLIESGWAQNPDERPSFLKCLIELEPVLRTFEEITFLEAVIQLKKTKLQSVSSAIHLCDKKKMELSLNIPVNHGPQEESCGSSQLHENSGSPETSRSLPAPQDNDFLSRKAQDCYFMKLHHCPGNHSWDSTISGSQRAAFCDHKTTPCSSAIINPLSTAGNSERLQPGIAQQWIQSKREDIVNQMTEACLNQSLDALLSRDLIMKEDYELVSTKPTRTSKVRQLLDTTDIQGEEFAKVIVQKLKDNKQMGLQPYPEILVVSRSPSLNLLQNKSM
ERK2, sequence (P28482 whole entry): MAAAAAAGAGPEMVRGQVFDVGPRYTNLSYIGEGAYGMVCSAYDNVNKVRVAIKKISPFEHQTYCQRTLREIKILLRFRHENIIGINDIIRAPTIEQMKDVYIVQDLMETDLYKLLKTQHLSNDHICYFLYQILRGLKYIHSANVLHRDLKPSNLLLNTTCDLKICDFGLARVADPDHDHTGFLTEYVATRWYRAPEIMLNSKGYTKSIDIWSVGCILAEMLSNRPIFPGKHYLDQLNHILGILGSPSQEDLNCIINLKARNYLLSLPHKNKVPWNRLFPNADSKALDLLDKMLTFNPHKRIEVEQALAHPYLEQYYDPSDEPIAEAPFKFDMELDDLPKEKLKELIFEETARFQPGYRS

## CC(C)COC(=O)c1[nH]c2ccc(F)cc2c1-c1cn(CC2CCN(CCNS(=O)(=O)c3ccc(CC(C)C)cc3)CC2)nn1 [AB668, isobutyl 5-fluoro-3-(1-((1-(2-((4-isobutylphenyl)sulfonamido)ethyl)piperidin-4-yl)methyl)-1H-1,2,3-triazol-4-yl)-1H-indole-2-carboxylate]
[1]
  remaining activity at 2 µM: 95%
[2]
  remaining activity at 2 µM: 91%
[3]
  AKT phosphorylation: weakly affected
[4]
  remaining activity at 2 µM: 97%
[5]
  remaining activity at 2 µM: 96%
[6]
  remaining activity at 2 µM: 83%
[7]
  remaining activity at 2 µM: 82%
[8]
  %Ctrl @ 2000nM: 77%
[9]
  remaining activity at 2 µM: 100%
[10]
  remaining activity at 2 µM: 68%
[11]
  cytotoxicity: no cytotoxicity
[12]
  remaining activity at 2 µM: 100%
[13]
  remaining activity at 2 µM: 85%
[14]
  remaining activity at 2 µM: 96%
[15]
  remaining activity at 2 µM: 93%
[16]
  remaining activity at 2 µM: 83%
[17]
  remaining activity at 2 µM: 86%
[18]
  remaining activity at 2 µM: 93%
[19]
  remaining activity at 2 µM: 100%
[20]
  remaining activity at 2 µM: 100%
[21]
  remaining activity at 2 µM: 78%
[22]
  remaining activity at 2 µM: 85%
[23]
  remaining activity at 2 µM: 75%
[24]
  remaining activity at 2 µM: 73%
[25]
  remaining activity at 2 µM: 96%
[26]
  remaining activity at 2 µM: 93%
[27]
  remaining activity at 2 µM: 79%
[28]
  remaining activity at 2 µM: 86%
